Source: patent US12065426B2, “Crystalline form of nilotinib hydrochloride, process for its preparation and pharmaceutical composition containing the same” (Laurus Labs Limited, priority 2018, dated 2024)
Like-named read-outs stand apart in the source and are kept apart here.

What was measured:
[1] = Thermogravimetric analysis (TGA) / loss on drying; assay type: physicochemical; conditions: for Thermogravimetric (weight loss %): 10° C./minute, RT to 80° C.
Protocol: Thermogravimetry analysis (TGA) data in the present invention was acquired using TA instruments TGA Q500 thermogravimetric analyser with universal Analysis 2000 software using the following conditions; Heating rate: 10° C./min; Temperature range: 28±2° C.-250° C.; Nitrogen flow: 60 mL/minute.

[2] = Saturation solubility studies in various mediums; conditions: for solubility: 25 °C, thermodynamic from solid
Protocol: Saturation solubility studies were conducted in various mediums for nilotinib hydrochloride Form L of the present invention and nilotinib hydrochloride monohydrate Form B (U.S. Pat. No. 8,415,363).

[3] = from table 22 of U.S. Pat. No. 8,415,363, cited from earlier work
[4] = Dynamic vapour sorption (DVS); assay type: physicochemical
Protocol: Dynamic vapour sorption (DVS) data in the present invention was acquired using TA instruments TA Q5000SA Dynamic vapour sorption analyser with Universal Analysis 2000 software under following parameters; Sample was initially equilibrated at 0% RT for 120 mins; humidity range: 10 to 90%; humidity step size: 10%; Equilibration condition: change in mass less than 0.01% within 5 mins.

[5] = Variable temperature powder X-ray diffraction (VT-PXRD); assay type: physicochemical; conditions: 25-300° C., heating rate 10° C./mins
[6] = Chemical and polymorphic stability study at different storage conditions (HPLC, XRD); assay type: physicochemical; set-up: key to 5-Methyl isomer (Imp-4) / 4-Ethyl analogue (Imp-5) / Any unspecified impurity / Total Impurities / Methyl ester impurity (Imp-2) / Acid impurity (Imp-1): ND: Not detected; BDRL: Below disregard limit
From the text: Nilotinib hydrochloride Form L is packed in a transparent Low density polyethylene (LDPE) bag with a strip seal along with nitrogen filling, which is again kept in a second transparent low density polyethylene bag with strip seal. The LDPE bag is kept in to a triple laminated sunlight barrier with heat seal followed by in a high density polyethylene container and well closed.
Alternatively, Nilotinib hydrochloride Form L is packed in a HM LDPE bag in nitrogen atmosphere, fill the bag with nitrogen and seal it with vacuum sealer. Place this bag in another HM LDPE bag, fill with nitrogen, keep one silica gel packet between two bags and seal the bag with vacuum sealer. Place this in a triple laminated sunlight barrier bag, seal the bag with vacuum sealer; and finally kept it in a HDPE container.
The Nilotinib hydrochloride Form L was analysed using High Performance Liquid Chromatography (“HPLC”) with the conditions as tabulated below: […]

Cc1cn(-c2cc(NC(=O)c3ccc(C)c(Nc4nccc(-c5cccnc5)n4)c3)cc(C(F)(F)F)c2)cn1.Cl.O [Form B, reference compound]
Thermogravimetric (weight loss %) [1]: 0.91 (RT to 80° C.) %
Saturation solubility ([2]; 0.01N HCl, approximately at 25° C.): 80 µg/mL
Saturation solubility ([2]; 0.1N HCl, approximately at 25° C.): 940 µg/mL
Saturation solubility ([2]; Ethanol, approximately at 25° C.): 3690 µg/mL
Saturation solubility ([2]; Isopropanol, approximately at 25° C.): 1930 µg/mL
Saturation solubility ([2]; Phosphate buffer, pH 6.8, approximately at 25° C.): Below detection
Saturation solubility ([2]; Water, approximately at 25° C.): 170 µg/mL
Loss on drying ([3]; 30° C.-100° C.): 1.00%
Loss on drying ([3]; 100° C.-220° C.): 3.02%

Cc1cn(-c2cc(NC(=O)c3ccc(C)c(Nc4nccc(-c5cccnc5)n4)c3)cc(C(F)(F)F)c2)cn1.Cl [Form L, 4-methyl-N-[3-(4-methyl-1H-imidazol-1-yl)-5-(trifluoromethyl)phenyl]-3-[[4-(3-pyridinyl)-2-pyrimidinyl]amino]-benzamide hydrochloride]
Thermogravimetric (weight loss %) [1]: 1.6 (RT to 80°) %
Loss on drying ([1]; 30° C.-100° C.): 2.3%
Loss on drying ([1]; 100° C.-220° C.): 7.3%
solubility ([2]; 0.01N HCl, simulated gastric fluid): 170 µg/mL
solubility ([2]; 0.1N HCl, simulated gastric fluid): 1860 µg/mL
solubility ([2]; ethanol, organic solvent or mixture): 16300 µg/mL
solubility ([2]; isopropanol, organic solvent or mixture): 2740 µg/mL
solubility ([2]; phosphate buffer, pH 6.8, aqueous buffer): 20 µg/mL
Solubility compared to Form B ([2]; various mediums): better solubility
solubility ([2]; water): 160 µg/mL
% Weight change ([4]; Adsorption, 10 % RH): 0.5405%
% Weight change ([4]; Adsorption, 20 % RH): 0.7918%
% Weight change ([4]; Adsorption, 30 % RH): 0.9954%
% Weight change ([4]; Adsorption, 40 % RH): 1.170%
% Weight change ([4]; Adsorption, 50 % RH): 1.350%
% Weight change ([4]; Adsorption, 60 % RH): 1.544%
% Weight change ([4]; Adsorption, 70 % RH): 1.904%
% Weight change ([4]; Adsorption, 80 % RH): 2.661%
% Weight change ([4]; Adsorption, 90 % RH): 5.414%
% Weight change ([4]; Desorption, 10 % RH): 1.303%
% Weight change ([4]; Desorption, 20 % RH): 1.751%
% Weight change ([4]; Desorption, 30 % RH): 2.098%
% Weight change ([4]; Desorption, 40 % RH): 2.855%
% Weight change ([4]; Desorption, 50 % RH): 4.190%
% Weight change ([4]; Desorption, 60 % RH): 4.453%
% Weight change ([4]; Desorption, 70 % RH): 4.875%
% Weight change ([4]; Desorption, 80 % RH): 5.134%
% Weight change ([4]; Desorption, 90 % RH): 5.414%
Water pick up ([4]; at 80% RH at RT): about 2.7%
Maximum absorption of water ([4]; at 90% RH): about 5.4%
Difference in water content between absorption and desorption ([4]; between 50% and 60% RH at room temperature): about 3%
Hygroscopicity ([4]; from water pick up at 80% RH at RT): moderately hygroscopic
Temperature up to which characteristic PXRD is retained [5]: about 140 °C
4-Ethyl analogue (Imp-5) ([6]; 25 ± 2° C./60 ± 5% RH, 2 month): BDRL
5-Methyl isomer (Imp-4) ([6]; 25 ± 2° C./60 ± 5% RH, 2 month): BDRL
Any unspecified impurity ([6]; 25 ± 2° C./60 ± 5% RH, 2 month): BDRL
Description ([6]; 25 ± 2° C./60 ± 5% RH, 2 month): Slightly yellow
Solid form by XRD ([6]; 25 ± 2° C./60 ± 5% RH, 2 month): Complies
Total Impurities ([6]; 25 ± 2° C./60 ± 5% RH, 2 month): BDRL
4-Ethyl analogue (Imp-5) ([6]; 25 ± 2° C./60 ± 5% RH, Initial): BDRL
Any unspecified impurity ([6]; 25 ± 2° C./60 ± 5% RH, Initial): BDRL
Description ([6]; 25 ± 2° C./60 ± 5% RH, Initial): Slightly yellow
Solid form by XRD ([6]; 25 ± 2° C./60 ± 5% RH, Initial): Complies
Total Impurities ([6]; 25 ± 2° C./60 ± 5% RH, Initial): BDRL
4-Ethyl analogue (Imp-5) ([6]; 40 ± 2° C./75 ± 5% RH, 1 month): BDRL
5-Methyl isomer (Imp-4) ([6]; 40 ± 2° C./75 ± 5% RH, 1 month): BDRL
Acid impurity (Imp-1) ([6]; 40 ± 2° C./75 ± 5% RH, 1 month): BDRL
Any unspecified impurity ([6]; 40 ± 2° C./75 ± 5% RH, 1 month): BDRL
Description ([6]; 40 ± 2° C./75 ± 5% RH, 1 month): Slightly yellow
Methyl ester impurity (Imp-2) ([6]; 40 ± 2° C./75 ± 5% RH, 1 month): BDRL
Solid form by XRD ([6]; 40 ± 2° C./75 ± 5% RH, 1 month): Complies
Total Impurities ([6]; 40 ± 2° C./75 ± 5% RH, 1 month): BDRL
4-Ethyl analogue (Imp-5) ([6]; 40 ± 2° C./75 ± 5% RH, 2 month): BDRL
5-Methyl isomer (Imp-4) ([6]; 40 ± 2° C./75 ± 5% RH, 2 month): BDRL
Any unspecified impurity ([6]; 40 ± 2° C./75 ± 5% RH, 2 month): BDRL
Description ([6]; 40 ± 2° C./75 ± 5% RH, 2 month): Slightly yellow
Solid form by XRD ([6]; 40 ± 2° C./75 ± 5% RH, 2 month): Complies
Total Impurities ([6]; 40 ± 2° C./75 ± 5% RH, 2 month): BDRL
4-Ethyl analogue (Imp-5) ([6]; 40 ± 2° C./75 ± 5% RH, Initial): BDRL
Any unspecified impurity ([6]; 40 ± 2° C./75 ± 5% RH, Initial): BDRL
Description ([6]; 40 ± 2° C./75 ± 5% RH, Initial): Slightly yellow
Solid form by XRD ([6]; 40 ± 2° C./75 ± 5% RH, Initial): Complies
Total Impurities ([6]; 40 ± 2° C./75 ± 5% RH, Initial): BDRL
Polymorphic and chemical identity on storage ([6]; different storage conditions, at least up to two months): retained the same polymorphic and chemical identity
